A word on the IC50: it is the midpoint of a concentration-inhibition curve.

For assay [1], the target named is Dual specificity protein kinase CLK4 (Homo sapiens) (UniProt Q9HAZ1). The experiment in a line: Inhibition of CLK4 (unknown origin) assessed as remaining activity at 1 uM by Kinome scan method relative to control.
Assay [2] deals with Receptor tyrosine-protein kinase erbB-3 (Homo sapiens) (UniProt P21860). The assay is described as follows: Inhibition of ERBB3 (unknown origin) assessed as remaining activity at 1 uM by Kinome scan method relative to control.
Sequence of Receptor tyrosine-protein kinase erbB-3 (Homo sapiens) (P21860 whole entry): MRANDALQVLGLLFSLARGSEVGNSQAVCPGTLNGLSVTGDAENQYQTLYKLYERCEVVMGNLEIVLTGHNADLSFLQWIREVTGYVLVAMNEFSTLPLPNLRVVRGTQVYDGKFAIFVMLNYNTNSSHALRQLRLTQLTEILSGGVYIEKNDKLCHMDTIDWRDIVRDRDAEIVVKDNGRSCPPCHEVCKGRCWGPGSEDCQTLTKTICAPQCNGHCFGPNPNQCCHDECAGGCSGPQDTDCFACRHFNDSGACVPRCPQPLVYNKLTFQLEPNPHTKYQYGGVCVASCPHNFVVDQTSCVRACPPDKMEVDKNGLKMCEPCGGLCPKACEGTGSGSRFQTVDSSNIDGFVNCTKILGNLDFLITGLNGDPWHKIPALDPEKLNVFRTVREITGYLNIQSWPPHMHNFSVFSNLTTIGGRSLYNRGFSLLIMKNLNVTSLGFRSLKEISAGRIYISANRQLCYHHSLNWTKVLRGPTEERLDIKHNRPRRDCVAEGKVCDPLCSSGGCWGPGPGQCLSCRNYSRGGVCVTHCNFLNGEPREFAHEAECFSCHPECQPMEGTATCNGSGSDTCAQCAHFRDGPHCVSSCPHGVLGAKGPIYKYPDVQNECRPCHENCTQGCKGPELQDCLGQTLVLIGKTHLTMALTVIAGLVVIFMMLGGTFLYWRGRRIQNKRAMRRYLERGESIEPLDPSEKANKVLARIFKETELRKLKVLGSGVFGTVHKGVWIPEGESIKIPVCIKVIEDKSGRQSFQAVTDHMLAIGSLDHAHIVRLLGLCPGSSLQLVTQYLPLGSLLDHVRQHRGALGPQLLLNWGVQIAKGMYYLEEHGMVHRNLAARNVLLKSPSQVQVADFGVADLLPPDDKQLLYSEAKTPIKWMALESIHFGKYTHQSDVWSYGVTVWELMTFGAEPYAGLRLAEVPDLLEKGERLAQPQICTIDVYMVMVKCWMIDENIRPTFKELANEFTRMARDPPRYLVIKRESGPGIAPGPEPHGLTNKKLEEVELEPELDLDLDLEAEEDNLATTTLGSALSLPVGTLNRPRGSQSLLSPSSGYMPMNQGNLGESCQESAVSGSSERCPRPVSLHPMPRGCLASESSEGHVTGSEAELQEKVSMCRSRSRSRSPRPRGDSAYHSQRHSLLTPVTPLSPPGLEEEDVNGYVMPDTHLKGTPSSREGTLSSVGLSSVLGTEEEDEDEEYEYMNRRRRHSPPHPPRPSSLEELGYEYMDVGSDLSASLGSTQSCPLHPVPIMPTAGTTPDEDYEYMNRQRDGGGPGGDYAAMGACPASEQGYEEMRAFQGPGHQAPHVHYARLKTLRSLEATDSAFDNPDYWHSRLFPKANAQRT
Assay [3] has as its target Mitogen-activated protein kinase 6 (Homo sapiens) (UniProt Q16659). The experiment in a line: Inhibition of ERK3 (unknown origin) assessed as remaining activity at 1 uM by Kinome scan method relative to control.
Assay [4] relates to Fibroblast growth factor receptor 3 (Homo sapiens), P22607 [G697C]. The assay is described as follows: Inhibition of FGFR3 G697C mutant (unknown origin) assessed as remaining activity at 1 uM by Kinome scan method relative to control.
For assay [5], the system named is Mast/stem cell growth factor receptor Kit (Homo sapiens), P10721 [V559D,T670I]. The assay is described as follows: Inhibition of KIT V559D/T670I mutant (unknown origin) assessed as remaining activity at 1 uM by Kinome scan method relative to control.
Assay [6] concerns the target Serine/threonine-protein kinase N1 (Homo sapiens) (UniProt Q16512). The assay is described as follows: Inhibition of PKN1 (unknown origin) assessed as remaining activity at 1 uM by Kinome scan method relative to control.
Assay [7] deals with Proto-oncogene tyrosine-protein kinase receptor Ret (Homo sapiens), P07949 [V804M]. The assay is described as follows: Inhibition of RET V804M (unknown origin) assessed as remaining activity at 1 uM by Kinome scan method relative to control.
The target in assay [8] is Angiopoietin-1 receptor (Homo sapiens) (UniProt Q02763). The experiment in a line: Inhibition of TIE2 (unknown origin) assessed as remaining activity at 1 uM by Kinome scan method relative to control.
Sequence of Angiopoietin-1 receptor (Homo sapiens) (Q02763 whole entry): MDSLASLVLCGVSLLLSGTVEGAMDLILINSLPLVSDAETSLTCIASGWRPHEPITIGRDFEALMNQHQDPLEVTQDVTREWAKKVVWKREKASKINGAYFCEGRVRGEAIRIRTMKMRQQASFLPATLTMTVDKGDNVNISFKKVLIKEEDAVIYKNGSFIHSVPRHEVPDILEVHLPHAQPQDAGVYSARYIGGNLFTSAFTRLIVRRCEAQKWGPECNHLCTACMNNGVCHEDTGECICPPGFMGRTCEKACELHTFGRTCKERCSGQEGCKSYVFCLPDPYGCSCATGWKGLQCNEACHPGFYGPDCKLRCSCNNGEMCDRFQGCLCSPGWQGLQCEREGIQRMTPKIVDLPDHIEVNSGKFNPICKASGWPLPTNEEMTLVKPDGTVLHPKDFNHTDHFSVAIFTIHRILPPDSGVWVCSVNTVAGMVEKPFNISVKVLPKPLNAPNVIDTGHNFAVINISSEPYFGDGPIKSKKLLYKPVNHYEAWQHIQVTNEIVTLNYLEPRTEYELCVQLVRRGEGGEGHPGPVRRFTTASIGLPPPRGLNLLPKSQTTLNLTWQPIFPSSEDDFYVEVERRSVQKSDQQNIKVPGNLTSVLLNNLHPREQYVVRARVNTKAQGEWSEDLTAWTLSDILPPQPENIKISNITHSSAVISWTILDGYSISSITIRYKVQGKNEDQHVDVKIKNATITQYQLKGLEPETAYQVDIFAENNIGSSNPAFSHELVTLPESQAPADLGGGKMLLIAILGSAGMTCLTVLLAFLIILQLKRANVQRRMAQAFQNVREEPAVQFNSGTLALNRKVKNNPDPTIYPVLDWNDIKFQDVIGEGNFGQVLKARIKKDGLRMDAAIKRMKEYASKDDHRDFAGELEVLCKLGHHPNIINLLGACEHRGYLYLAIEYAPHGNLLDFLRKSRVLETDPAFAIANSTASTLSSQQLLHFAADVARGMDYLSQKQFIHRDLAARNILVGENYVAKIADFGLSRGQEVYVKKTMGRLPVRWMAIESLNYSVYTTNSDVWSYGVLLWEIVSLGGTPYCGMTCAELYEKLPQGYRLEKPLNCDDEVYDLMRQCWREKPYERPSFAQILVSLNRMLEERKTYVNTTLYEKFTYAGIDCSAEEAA
Assay [9] addresses CDK9/cyclin T1 (Homo sapiens) (UniProt O60563+P50750). The experiment in a line: Inhibition of human CDK9/CyclinT1 assessed as residual activity at 1 uM using RBER-CHKtide as substrate in presence of 33P-ATP by ProQinase assay relative to control. In kind it is protein-complex assay.
For assay [10], the system named is Epidermal growth factor receptor (Homo sapiens), P00533 [UNDEFINED MUTATION]. The assay is described as follows: Inhibition of human EGFR d752-759 mutant assessed as residual activity at 1 uM using PolyEY as substrate in presence of 33P-ATP by ProQinase assay relative to control.
Assay [11] deals with Ephrin type-B receptor 3 (Homo sapiens) (UniProt P54753). The assay is described as follows: Inhibition of human EPHB3 assessed as residual activity at 1 uM using polyEY as substrate in presence of 33P-ATP by ProQinase assay relative to control.
The target of assay [12] is Tyrosine-protein kinase Fes/Fps (Homo sapiens) (UniProt P07332). The assay is described as follows: Inhibition of human FES assessed as residual activity at 1 uM using polyEY as substrate in presence of 33P-ATP by ProQinase assay relative to control.
Sequence of Tyrosine-protein kinase Fes/Fps (Homo sapiens) (P07332 whole entry): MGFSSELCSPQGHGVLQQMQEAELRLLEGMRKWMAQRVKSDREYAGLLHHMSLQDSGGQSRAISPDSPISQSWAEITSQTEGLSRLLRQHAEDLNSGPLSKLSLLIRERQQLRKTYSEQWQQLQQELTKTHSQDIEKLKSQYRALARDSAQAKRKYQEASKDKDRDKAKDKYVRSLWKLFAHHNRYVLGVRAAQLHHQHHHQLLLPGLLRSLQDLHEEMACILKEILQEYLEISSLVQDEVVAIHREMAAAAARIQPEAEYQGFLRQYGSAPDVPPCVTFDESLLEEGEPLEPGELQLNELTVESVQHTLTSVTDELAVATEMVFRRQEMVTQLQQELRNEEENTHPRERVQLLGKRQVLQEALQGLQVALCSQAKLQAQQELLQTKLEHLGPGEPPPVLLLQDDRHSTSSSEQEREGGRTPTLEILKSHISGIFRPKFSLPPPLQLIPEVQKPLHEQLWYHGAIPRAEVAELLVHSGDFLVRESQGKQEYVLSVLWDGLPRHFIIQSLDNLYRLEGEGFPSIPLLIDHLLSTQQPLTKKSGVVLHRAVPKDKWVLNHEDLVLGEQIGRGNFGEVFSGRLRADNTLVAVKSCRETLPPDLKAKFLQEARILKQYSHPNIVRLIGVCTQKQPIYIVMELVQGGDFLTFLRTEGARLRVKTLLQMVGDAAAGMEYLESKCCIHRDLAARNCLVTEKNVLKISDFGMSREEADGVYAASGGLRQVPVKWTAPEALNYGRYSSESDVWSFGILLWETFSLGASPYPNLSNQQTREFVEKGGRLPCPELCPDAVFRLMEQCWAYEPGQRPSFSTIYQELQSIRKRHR
Assay [13] concerns the target Fibroblast growth factor receptor 3 (Homo sapiens) (UniProt P22607). The experiment in a line: Inhibition of human FGFR3 assessed as residual activity at 1 uM using PolyEY as substrate in presence of 33P-ATP by ProQinase assay relative to control.
For assay [14], the target named is Tyrosine-protein kinase Fgr (Homo sapiens) (UniProt P09769). The assay is described as follows: Inhibition of human FGR assessed as residual activity at 1 uM using polyEY as substrate in presence of 33P-ATP by ProQinase assay relative to control.
Sequence of Tyrosine-protein kinase Fgr (Homo sapiens) (P09769 2-529 limits assumed): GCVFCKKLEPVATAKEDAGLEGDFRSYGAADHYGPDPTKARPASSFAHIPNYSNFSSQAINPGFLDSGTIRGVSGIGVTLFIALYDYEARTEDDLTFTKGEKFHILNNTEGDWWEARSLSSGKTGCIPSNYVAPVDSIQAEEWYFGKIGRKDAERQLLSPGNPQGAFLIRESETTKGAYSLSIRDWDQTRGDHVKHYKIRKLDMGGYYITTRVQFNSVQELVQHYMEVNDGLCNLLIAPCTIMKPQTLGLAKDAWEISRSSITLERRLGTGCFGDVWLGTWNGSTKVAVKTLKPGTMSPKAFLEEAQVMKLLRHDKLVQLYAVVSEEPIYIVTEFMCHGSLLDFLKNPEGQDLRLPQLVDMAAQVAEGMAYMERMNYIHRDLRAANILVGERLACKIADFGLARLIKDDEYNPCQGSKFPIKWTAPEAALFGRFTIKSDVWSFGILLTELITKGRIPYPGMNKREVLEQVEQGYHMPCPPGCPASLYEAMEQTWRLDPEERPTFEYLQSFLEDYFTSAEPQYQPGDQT
For assay [15], the target named is Tyrosine-protein kinase HCK (Homo sapiens) (UniProt P08631). The experiment in a line: Inhibition of human HCK assessed as residual activity at 1 uM using polyEY as substrate in presence of 33P-ATP by ProQinase assay relative to control.
Assay [16] addresses Homeodomain-interacting protein kinase 2 (Homo sapiens) (UniProt Q9H2X6). The experiment in a line: Inhibition of human HIPK2 assessed as residual activity at 1 uM using RBER-CHKtide as substrate in presence of 33P-ATP by ProQinase assay relative to control.
The target in assay [17] is Inhibitor of nuclear factor kappa-B kinase subunit epsilon (Homo sapiens) (UniProt Q14164). The experiment in a line: Inhibition of human IKKepsilon assessed as residual activity at 1 uM using RBER-GSK3 as substrate in presence of 33P-ATP by ProQinase assay relative to control.
Assay [18] concerns the target Serine/threonine-protein kinase MARK1 (Homo sapiens) (UniProt Q9P0L2). The assay is described as follows: Inhibition of human MARK1 assessed as residual activity at 1 uM using RBER-CHKtide as substrate in presence of 33P-ATP by ProQinase assay relative to control.
Assay [19] addresses Serine/threonine-protein kinase Nek7 (Homo sapiens) (UniProt Q8TDX7). The experiment in a line: Inhibition of human NEK7 assessed as residual activity at 1 uM using casein as substrate in presence of 33P-ATP by ProQinase assay relative to control.
The target of assay [20] is Mitogen-activated protein kinase kinase kinase 14 (Homo sapiens) (UniProt Q99558). The experiment in a line: Inhibition of human NIK assessed as residual activity at 1 uM using RBER-CHKtide as substrate in presence of 33P-ATP by ProQinase assay relative to control.
Assay [21] addresses Macrophage-stimulating protein receptor (Homo sapiens) (UniProt Q04912). The assay is described as follows: Inhibition of human RON assessed as residual activity at 1 uM using polyEY as substrate in presence of 33P-ATP by ProQinase assay relative to control.
The target in assay [22] is T1, Tyrosine-protein kinase TXK (Homo sapiens) (UniProt P42681).
T1 sequence (whole entry): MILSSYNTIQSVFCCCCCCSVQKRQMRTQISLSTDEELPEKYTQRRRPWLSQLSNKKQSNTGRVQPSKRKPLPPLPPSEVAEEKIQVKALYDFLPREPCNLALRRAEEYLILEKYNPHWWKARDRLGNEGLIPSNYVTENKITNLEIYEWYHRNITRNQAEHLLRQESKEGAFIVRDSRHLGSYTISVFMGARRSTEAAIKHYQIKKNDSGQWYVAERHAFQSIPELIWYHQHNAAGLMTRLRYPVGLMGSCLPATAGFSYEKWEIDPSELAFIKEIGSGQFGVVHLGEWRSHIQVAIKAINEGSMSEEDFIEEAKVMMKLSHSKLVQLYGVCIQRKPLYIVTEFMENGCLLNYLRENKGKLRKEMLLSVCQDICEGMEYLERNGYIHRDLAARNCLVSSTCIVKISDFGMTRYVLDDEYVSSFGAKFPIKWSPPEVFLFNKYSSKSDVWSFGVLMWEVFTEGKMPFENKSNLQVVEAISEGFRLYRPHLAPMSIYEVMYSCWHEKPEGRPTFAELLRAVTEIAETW
The assay is described as follows: Inhibition of human TXK assessed as residual activity at 1 uM using RBER-CHKtide as substrate in presence of 33P-ATP by ProQinase assay relative to control.

Assay [23] can be described thus: Anti-inflammatory activity against human derived high respond PBMC cells assessed as inhibition in stimulated IL-4 cytokine release incubated for 2 hrs in the presence of LPS/SEB/aCD28 by Luminex based sandwich immunoassay. Type of assay: functional, cell-based.
Assay [24] in a line: Anti-inflammatory activity against human derived medium respond PBMC cells assessed as inhibition in stimulated IL-13 cytokine release incubated for 2 hrs in the presence of LPS/SEB/aCD28 by Luminex based sandwich immunoassay. Type of assay: functional, cell-based.

Sequence of Mitogen-activated protein kinase 6 (Homo sapiens) (Q16659 whole entry): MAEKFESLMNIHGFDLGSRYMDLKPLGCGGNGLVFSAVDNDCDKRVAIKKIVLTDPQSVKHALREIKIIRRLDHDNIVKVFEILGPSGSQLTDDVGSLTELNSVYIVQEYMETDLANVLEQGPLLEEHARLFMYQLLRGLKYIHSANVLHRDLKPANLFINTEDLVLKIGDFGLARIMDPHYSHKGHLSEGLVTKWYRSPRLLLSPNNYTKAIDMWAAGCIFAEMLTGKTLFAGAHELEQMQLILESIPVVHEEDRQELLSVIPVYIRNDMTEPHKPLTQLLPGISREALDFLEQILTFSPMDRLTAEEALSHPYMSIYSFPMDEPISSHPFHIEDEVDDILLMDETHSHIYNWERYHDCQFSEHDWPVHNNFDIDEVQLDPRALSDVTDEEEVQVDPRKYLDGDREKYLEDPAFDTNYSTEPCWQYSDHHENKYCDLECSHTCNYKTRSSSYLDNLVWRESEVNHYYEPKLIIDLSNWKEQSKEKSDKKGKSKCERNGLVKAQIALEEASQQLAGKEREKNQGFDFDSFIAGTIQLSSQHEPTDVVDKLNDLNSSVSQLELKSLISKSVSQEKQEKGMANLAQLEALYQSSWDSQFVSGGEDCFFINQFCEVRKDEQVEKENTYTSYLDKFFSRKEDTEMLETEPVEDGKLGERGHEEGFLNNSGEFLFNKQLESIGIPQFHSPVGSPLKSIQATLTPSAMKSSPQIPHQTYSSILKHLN
Sequence of Dual specificity protein kinase CLK4 (Homo sapiens) (Q9HAZ1 whole entry, looked up): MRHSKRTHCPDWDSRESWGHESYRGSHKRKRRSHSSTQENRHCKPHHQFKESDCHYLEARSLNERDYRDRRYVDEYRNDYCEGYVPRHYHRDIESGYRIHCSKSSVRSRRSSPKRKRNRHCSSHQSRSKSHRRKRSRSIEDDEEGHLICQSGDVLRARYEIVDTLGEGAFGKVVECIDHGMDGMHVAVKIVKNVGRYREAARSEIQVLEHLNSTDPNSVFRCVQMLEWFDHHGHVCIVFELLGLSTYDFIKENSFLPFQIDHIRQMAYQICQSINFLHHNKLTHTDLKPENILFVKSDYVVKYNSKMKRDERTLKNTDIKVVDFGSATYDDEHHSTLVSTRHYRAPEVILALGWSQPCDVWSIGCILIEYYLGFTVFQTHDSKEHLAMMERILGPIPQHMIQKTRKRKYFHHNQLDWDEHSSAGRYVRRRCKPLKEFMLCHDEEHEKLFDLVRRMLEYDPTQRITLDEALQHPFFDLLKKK

For the compound `O=C1c2ccc(Nc3ccc(F)cc3F)cc2CCc2ccc(OC[C@H](O)CO)cc21` [Skepinone-L], the Activity in [1] is 100%; in assay [2] it was 100%; in [3], 100%; in [4], 87%; in assay [5], 94%; in assay [6] it was 91%. In addition, the Activity in assay [7] is 95%; in assay [8] it was 100%; in assay [9], 103%; in assay [10] it was 83%; in assay [11], 108%; in assay [12], 121%. The Activity in [13] came out at 102%; in assay [14], 100%; in assay [15] it was 98%; in assay [16] it was 104%; in assay [17] it was 103%; in [18] it was 88%. Moreover, the Activity in [19] came out at 83%; in assay [20] it was 96%; in assay [21] it was 56%; in [22], 93%. Besides, the IC50 entry in assay [23] is “Not Active”; in [24], 4.38 µM.
